# Assay results from publication PMC9921896 (Molecules, 2023).
# Key:
# Test in all cases: CYP inhibition assay in HLM, single concentration
# Type in all cases: biochemical
# [1] = molecular target: T1, CYP3A4 (Homo sapiens, UniProt P08684); conditions: human liver microsomes, probe Midazolam, n = 3, read-out: % Inhibition (CYP 3A4)
# T1 construct: Using HLM as the enzyme source; from tissue; host or cells: human liver microsomes
# Experimental: (§1) The regulatory bodies and pharmaceutical firms are quite concerned about CYP inhibition. Therefore, medicinal chemists often change the lead structure to decrease CYP inhibition. If left uncorrected, it can cause DDIs, enhanced drug concentration, and, thus, toxicity.
# (§2) Using HLM as the enzyme source, the CYP inhibition potential was employed to assess the inhibitory effect of the TbB ligands on the CYP1A2, 2B6, 2C8, 2C9, 2C19, and 2D6 3A4 isoforms. Phenacetin (CYP1A2, […]), tolbutamide (CYP2C9, 20 mM), bupropion (CYP2B6, […]), mephenytoin (CYP2C19, […]), midazolam (CYP3A4, 5 mM), amodiaquine (CYP2C8, 0.02 mM), and dextromethorphan (CYP2D6, 5 mM) were used as probe substrates. The test substance included TbB ligand (final concentrations of […] for each) and HLMs (final concentration of 0.1 mg protein per mL), with or without 1.0 mM NADPH. The reaction was started by adding pre-incubated 25 μ L of NADPH into all wells and incubate at 37 °C for 10 min for 3A4 and 20 min for remaining all isoforms. The reaction was stopped by adding 100 μ L of stop solution to all wells. The samples were centrifuged at 4000 rpm for 10 min at 4 °C. Supernatant (100 μ L) was withdrawn, mixed with 200 μ L of water followed by LC-MS/MS analysis.
# [2] = molecular target: T2, CYP2D6 (Homo sapiens, UniProt P10635); conditions: human liver microsomes, probe Dextromethorphan, n = 3, read-out: % Inhibition (CYP 2D6)
# T2 construct: Using HLM as the enzyme source; from tissue; host or cells: human liver microsomes
# Experimental: as §1, §2
# [3] = molecular target: T3, CYP1A2 (Homo sapiens, UniProt P05177); conditions: human liver microsomes, probe Phenacetin, n = 3, read-out: % Inhibition (CYP 1A2)
# T3 construct: Using HLM as the enzyme source; from tissue; host or cells: human liver microsomes
# T3 sequence (P05177 1-516): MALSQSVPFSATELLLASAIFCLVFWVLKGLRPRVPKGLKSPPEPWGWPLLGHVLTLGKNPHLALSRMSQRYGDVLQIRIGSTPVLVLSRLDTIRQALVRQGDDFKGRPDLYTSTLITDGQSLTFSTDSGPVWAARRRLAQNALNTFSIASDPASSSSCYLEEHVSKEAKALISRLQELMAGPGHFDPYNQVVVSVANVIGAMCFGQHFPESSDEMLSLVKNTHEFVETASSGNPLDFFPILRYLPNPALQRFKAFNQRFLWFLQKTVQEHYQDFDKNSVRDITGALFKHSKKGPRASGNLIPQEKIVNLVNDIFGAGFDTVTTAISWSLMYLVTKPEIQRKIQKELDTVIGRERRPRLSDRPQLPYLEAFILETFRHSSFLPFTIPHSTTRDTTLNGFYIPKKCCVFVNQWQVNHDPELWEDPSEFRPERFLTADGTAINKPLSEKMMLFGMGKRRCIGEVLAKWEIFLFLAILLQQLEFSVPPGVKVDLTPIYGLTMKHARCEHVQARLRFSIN
# Experimental: as §1, §2
# [4] = molecular target: T4, CYP2C8 (Homo sapiens, UniProt P10632); conditions: human liver microsomes, probe Amodiaquine, n = 3, read-out: % Inhibition (CYP 2C8)
# T4 construct: Using HLM as the enzyme source; from tissue; host or cells: human liver microsomes
# T4 sequence (P10632 1-490): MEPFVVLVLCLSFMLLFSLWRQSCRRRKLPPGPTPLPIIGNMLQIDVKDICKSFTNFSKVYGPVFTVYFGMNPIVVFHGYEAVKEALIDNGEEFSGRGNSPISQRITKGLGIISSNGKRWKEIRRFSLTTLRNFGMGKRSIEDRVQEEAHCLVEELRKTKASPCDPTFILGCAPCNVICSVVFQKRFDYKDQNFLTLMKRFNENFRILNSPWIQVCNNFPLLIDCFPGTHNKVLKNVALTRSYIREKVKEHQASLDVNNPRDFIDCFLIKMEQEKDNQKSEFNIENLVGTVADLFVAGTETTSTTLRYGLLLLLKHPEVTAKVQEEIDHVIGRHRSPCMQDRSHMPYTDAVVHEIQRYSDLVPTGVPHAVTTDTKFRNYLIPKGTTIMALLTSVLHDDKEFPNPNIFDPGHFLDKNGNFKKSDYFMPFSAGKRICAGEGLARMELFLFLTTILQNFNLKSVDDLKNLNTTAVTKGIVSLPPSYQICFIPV
# Experimental: as §1, §2
# [5] = molecular target: T5, CYP2C19 (Homo sapiens, UniProt P33261); conditions: human liver microsomes, probe S-Mephenytoin, n = 3, read-out: % Inhibition (CYP 2C19)
# T5 construct: Using HLM as the enzyme source; from tissue; host or cells: human liver microsomes
# Experimental: as §1, §2
# [6] = molecular target: T6, CYP2B6 (Homo sapiens, UniProt P20813); conditions: human liver microsomes, probe Bupropion, n = 3, read-out: % Inhibition (CYP 2B6)
# T6 construct: Using HLM as the enzyme source; from tissue; host or cells: human liver microsomes
# T6 sequence (P20813 1-491): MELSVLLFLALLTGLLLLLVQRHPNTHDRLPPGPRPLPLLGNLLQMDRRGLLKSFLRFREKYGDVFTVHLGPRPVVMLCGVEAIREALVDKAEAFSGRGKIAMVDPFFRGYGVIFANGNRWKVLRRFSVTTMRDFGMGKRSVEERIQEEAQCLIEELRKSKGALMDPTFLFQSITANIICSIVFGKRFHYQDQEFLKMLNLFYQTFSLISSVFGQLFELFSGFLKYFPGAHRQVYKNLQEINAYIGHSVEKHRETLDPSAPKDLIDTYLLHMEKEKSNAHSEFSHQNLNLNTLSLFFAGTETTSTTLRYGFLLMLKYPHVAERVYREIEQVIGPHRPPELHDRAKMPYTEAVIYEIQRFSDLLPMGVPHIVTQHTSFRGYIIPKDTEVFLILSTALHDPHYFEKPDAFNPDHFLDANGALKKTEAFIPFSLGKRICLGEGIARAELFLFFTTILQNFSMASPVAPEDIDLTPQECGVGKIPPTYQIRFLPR
# Experimental: as §1, §2
# [7] = molecular target: T7, CYP2C9 (Homo sapiens, UniProt P11712); conditions: human liver microsomes, probe Tolbutamide, n = 3, read-out: % Inhibition (CYP 2C9)
# T7 construct: Using HLM as the enzyme source; from tissue; host or cells: human liver microsomes
# Experimental: as §1, §2
# T2 sequence (P10635 whole entry): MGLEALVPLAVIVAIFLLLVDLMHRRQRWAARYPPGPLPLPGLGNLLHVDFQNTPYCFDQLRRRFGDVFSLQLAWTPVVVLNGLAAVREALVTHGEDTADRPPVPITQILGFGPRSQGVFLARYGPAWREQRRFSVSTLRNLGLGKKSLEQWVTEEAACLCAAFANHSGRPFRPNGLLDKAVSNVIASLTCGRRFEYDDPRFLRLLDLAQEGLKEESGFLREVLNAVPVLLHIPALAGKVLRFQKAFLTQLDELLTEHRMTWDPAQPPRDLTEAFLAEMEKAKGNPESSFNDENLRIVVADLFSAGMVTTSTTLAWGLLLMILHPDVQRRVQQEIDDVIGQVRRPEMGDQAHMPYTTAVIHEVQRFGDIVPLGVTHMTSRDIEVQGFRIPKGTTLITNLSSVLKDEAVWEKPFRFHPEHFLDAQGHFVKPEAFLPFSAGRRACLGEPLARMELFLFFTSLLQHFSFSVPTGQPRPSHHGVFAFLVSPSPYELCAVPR
# T5 sequence (P33261 whole entry): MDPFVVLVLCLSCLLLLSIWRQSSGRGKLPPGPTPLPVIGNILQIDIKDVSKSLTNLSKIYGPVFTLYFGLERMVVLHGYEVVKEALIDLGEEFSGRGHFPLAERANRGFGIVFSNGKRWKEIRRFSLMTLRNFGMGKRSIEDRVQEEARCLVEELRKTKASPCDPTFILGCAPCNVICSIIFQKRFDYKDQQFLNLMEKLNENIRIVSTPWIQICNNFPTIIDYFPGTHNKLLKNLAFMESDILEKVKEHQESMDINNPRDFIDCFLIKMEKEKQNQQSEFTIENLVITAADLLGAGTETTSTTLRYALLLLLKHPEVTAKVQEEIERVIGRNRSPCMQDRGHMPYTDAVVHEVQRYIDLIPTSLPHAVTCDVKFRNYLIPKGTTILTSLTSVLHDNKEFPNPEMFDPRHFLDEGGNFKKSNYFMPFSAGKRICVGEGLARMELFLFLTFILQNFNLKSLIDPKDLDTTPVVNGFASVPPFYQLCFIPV
# T7 sequence (P11712 whole entry): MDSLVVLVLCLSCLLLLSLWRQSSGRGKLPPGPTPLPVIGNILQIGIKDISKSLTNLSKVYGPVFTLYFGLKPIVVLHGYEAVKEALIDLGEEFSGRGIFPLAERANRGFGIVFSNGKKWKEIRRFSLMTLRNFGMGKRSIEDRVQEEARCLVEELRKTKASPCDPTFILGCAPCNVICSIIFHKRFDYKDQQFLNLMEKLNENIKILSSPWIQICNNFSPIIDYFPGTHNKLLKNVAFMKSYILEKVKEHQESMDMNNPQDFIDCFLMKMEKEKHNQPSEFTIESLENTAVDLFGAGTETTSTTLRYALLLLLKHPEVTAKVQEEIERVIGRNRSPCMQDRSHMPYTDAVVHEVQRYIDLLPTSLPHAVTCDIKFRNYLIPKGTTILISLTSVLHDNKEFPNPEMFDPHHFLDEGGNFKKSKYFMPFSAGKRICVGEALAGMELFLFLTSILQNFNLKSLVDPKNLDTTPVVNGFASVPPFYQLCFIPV
# T1 sequence (P08684 whole entry): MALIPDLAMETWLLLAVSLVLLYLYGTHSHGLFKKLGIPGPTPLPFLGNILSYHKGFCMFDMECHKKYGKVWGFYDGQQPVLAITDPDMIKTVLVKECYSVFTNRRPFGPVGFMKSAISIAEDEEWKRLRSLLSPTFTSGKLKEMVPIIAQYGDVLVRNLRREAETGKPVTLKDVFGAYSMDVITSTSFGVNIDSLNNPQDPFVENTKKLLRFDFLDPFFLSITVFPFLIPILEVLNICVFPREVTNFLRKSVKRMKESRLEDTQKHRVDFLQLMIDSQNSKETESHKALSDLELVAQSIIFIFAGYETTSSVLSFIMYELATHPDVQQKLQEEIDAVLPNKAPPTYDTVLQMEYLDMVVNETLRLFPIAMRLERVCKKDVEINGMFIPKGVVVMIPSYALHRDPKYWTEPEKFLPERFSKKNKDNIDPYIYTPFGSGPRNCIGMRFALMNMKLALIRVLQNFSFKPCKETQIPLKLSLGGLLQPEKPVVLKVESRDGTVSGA
Structure (SMILES),"inhibition at 10 min, 10 µM [1] [%]","inhibition at 20 min, 10 µM [2] [%]","inhibition at 20 min, 10 µM [3] [%]","inhibition at 20 min, 10 µM [4] [%]","inhibition at 20 min, 10 µM [5] [%]","inhibition at 20 min, 10 µM [6] [%]","inhibition at 20 min, 10 µM [7] [%]"
Cc1cc(-c2nnn(-c3cc(C)c(O)c(C)c3)n2)cc(C)c1O [223-3],96,96,40,88,84,80,82
COc1cc(-c2nnn(-c3cc(OC)c(O)c(OC)c3)n2)cc(OC)c1O [223-2],-6,-2,33,39,-2,47,68
Oc1ccc(-c2nnn(-c3ccc(O)cc3)n2)cc1 [223-10],22,-4,30,82,33,54,90
